Experimental findings from patent publication US20210207070A1, “A CELL CULTURING PLATFORM, A CELL CULTURE SYSTEM, AND A METHOD FOR MODELING NEURAL ACTIVITY IN VITRO” (Tampere University Foundation sr, priority 2018, published 2021) are described below.

The assay concerns neurons. Briefly: Activity of neurons in the closed-loop cell culturing platform, measured with electrodes in the guiding tunnels. Format: cell-based. The following applies: kainate acid added to the compartment Area 1; FIG. 5c. An excerpt:
FIGS. 5a and 5b illustrate activity of neurons in a cell culturing platform according to an exemplifying and non-limiting embodiment. FIG. 5a illustrates signals measured with electrodes in the compartments of the cell culturing platform. The compartments are denoted with references ‘Area 1’, ‘Area 2’, and ‘Area 3’. As shown by black arrows in FIG. 5a, there is synchronous activity in the compartments Area 1, Area 2, and Area 3. […] of the cell culturing platform. The signals measured with electrodes in the guiding tunnels between the compartments Area 2 and Area 3 are denoted with a reference ‘2-3’, the signals measured with electrodes in the guiding tunnels between the compartments Area 1 and Area 2 are denoted with a reference ‘1-2’, and the signals measured with electrodes in the guiding tunnels between the compartments Area 3 and Area 1 are denoted with a reference ‘3-1’. As shown by black arrows in FIG. 5b, there is synchronous activity in the guiding tunnels between different pairs of the compartments.
FIG. 5c illustrates an effect of adding kainate acid to the compartment Area 1.

On to `C=C(C)[C@H]1CN[C@H](C(=O)O)[C@H]1CC(=O)O` [kainate acid], for which the “activity measured with electrodes in the guiding tunnels between the compartments Area 1 and Area 2” value is recorded as “increases the activity”; the “activity measured with electrodes in the guiding tunnels between the compartments Area 2 and Area 3” value was “substantially on the base level”; the “activity measured with electrodes in the guiding tunnels between the compartments Area 3 and Area 1” value is on record as “increases the activity”.
